Test results: patent US4138488A, “Diphenylmethyl picolinic acid derivatives and their use as anti-acne agents” (Schering Corporation, priority 1977, dated 1979)

Test: In vivo topical activity

| SMILES | in vivo topical activity |
| --- | --- |
| Oc1c(Cl)cc(Cl)c(Cl)c1Cc1c(O)c(Cl)cc(Cl)c1Cl [hexachlorophene] | neither hexachlorophene nor tetracycline exhibit substantial in vivo topical activity |
| CN(C)C1C(=O)C(C(N)=O)=C(O)C2(O)C(=O)C3=C(O)c4c(O)cccc4C(C)(O)C3CC12 (centres unmarked) [tetracycline] | neither hexachlorophene nor tetracycline exhibit substantial in vivo topical activity |
